Measured values as given in ChEMBL document CHEMBL2203097, “7-Phenyl-pyrido[2,3-d]pyrimidine-2,4-diamines: novel and highly selective protein tyrosine phosphatase 1B inhibitors” (Bioorg Med Chem Lett, 2012).
Each block holds one molecule with its values, some of them ahead of it. Calls of active or inactive are those of the source. The rule behind the calls is not given here.

Columns and labels:
[1] = biological target: T1, Tyrosine-protein phosphatase non-receptor type 1 (Homo sapiens, UniProt P18031); assay: Inhibition of human PTP1B (1 to 321 amino acid residues) expressed in Escherichia coli using TRDI(pY)E as substrate incubated for 15 mins prior to substrate addition measured after 20 mins by malachite green staining-based colorimetric assay
T1 sequence (P18031 whole entry): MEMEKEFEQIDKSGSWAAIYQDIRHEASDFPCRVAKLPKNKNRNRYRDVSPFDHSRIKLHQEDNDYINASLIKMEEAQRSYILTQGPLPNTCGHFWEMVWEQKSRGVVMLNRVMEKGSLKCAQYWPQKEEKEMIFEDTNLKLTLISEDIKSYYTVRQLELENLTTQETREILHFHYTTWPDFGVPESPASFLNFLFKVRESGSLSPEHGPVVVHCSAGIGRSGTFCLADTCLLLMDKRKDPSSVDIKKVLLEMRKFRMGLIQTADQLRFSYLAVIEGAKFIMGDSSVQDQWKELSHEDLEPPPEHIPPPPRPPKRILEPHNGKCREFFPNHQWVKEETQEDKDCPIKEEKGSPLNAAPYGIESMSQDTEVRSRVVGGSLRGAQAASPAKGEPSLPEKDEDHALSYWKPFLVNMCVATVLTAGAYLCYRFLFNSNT

[2] = species on record: Homo sapiens; assay: Selectivity ratio of IC50 for TCPTP to IC50 for human PTP1B (1 to 321 amino acid residues)
[3] = species on record: Homo sapiens; assay: Selectivity ratio of IC50 for LAR to IC50 for human PTP1B (1 to 321 amino acid residues)
[4] = species on record: Homo sapiens; assay: Selectivity ratio of IC50 for CD45 to IC50 for human PTP1B (1 to 321 amino acid residues)
[5] = Volume of distribution in C57 mouse at 5 mg/kg, iv; format: ADME, organism-based; parameters: dose 5 mg/kg, route intravenous; settings: in vivo
[6] = species on record: Homo sapiens; assay: Selectivity ratio of IC50 for PTPbeta to IC50 for human PTP1B (1 to 321 amino acid residues)
[7] = species on record: Homo sapiens; assay: Selectivity ratio of IC50 for SHP2 to IC50 for human PTP1B (1 to 321 amino acid residues)
[8] = species on record: Homo sapiens; assay: Selectivity ratio of IC50 for PTPgamma to IC50 for human PTP1B (1 to 321 amino acid residues)
[9] = AUC in C57 mouse at 50 mg/kg, po; format: ADME, organism-based; parameters: dose 50 mg/kg, route oral; settings: plasma
[10] = species on record: Homo sapiens; assay: Selectivity ratio of IC50 for PTPepsilon to IC50 for human PTP1B (1 to 321 amino acid residues)
[11] = species on record: Homo sapiens; assay: Selectivity ratio of IC50 for HCP to IC50 for human PTP1B (1 to 321 amino acid residues)
[12] = Cmax in C57 mouse at 50 mg/kg, po; format: ADME, organism-based; parameters: dose 50 mg/kg, route oral; settings: in vivo
[13] = species on record: Homo sapiens; assay: Selectivity ratio of IC50 for YOP to IC50 for human PTP1B (1 to 321 amino acid residues)
[14] = biological target: T2, Tyrosine-protein phosphatase non-receptor type 1 (Homo sapiens) (UniProt P18031); settings: 0.29 to 3.3 uM
T2 sequence (whole entry): T1 sequence (P18031 whole entry)
Description: Uncompetitive inhibition of human PTP1B (1 to 321 amino acid residues) expressed in Escherichia coli using DiFMUP as substrate at 0.29 to 3.3 uM by Lineweaver-Burke plot analysis

[15] = AUC in C57 mouse at 5 mg/kg, iv; format: ADME, organism-based; parameters: dose 5 mg/kg, route intravenous; settings: plasma
[16] = Half life in C57 mouse at 50 mg/kg, po; format: ADME, organism-based; parameters: dose 50 mg/kg, route oral; settings: in vivo
[17] = species on record: Homo sapiens; assay: Selectivity ratio of IC50 for PTPalpha to IC50 for human PTP1B (1 to 321 amino acid residues)
[18] = Clearance in C57 mouse at 5 mg/kg, iv; format: ADME, organism-based; parameters: dose 5 mg/kg, route intravenous; settings: in vivo
[19] = Oral bioavailability in C57 mouse at 50 mg/kg; format: ADME, organism-based; settings: in vivo
[20] = Clearance in C57 mouse at 10 mg/kg, iv; format: ADME, organism-based; parameters: dose 10 mg/kg, route intravenous; settings: in vivo
[21] = AUC in C57 mouse at 10 mg/kg, iv; format: ADME, organism-based; parameters: dose 10 mg/kg, route intravenous; settings: plasma
[22] = Volume of distribution in C57 mouse at 10 mg/kg, iv; format: ADME, organism-based; parameters: dose 10 mg/kg, route intravenous; settings: in vivo

Compound: CNc1nc(N)nc2nc(-c3cccc(Cl)c3Cl)ccc12
- IC50 [1]: 1180 nM

Compound: CNc1nc(N)nc2nc(-c3c(N4CCCCC4)cccc3C(F)(F)F)ccc12
- IC50 [1]: 1350 nM

Compound: CCNc1nc(N)nc2nc(-c3ccccc3C(F)(F)F)ccc12
- IC50 [1]: 1340 nM

Compound: CNc1nc(N)nc2nc(-c3ccccc3Cl)ccc12
- IC50 [1]: 1160 nM

Compound: Nc1nc(NCCO)c2ccc(-c3ccccc3C(F)(F)F)nc2n1
- IC50 [1]: 1850 nM

Compound: CNc1nc(N)nc2nc(-c3ccccc3C(F)(F)F)c(S(C)(=O)=O)cc12
- IC50 [1]: 1000 nM

Compound: CCCNc1nc(N)nc2nc(-c3ccccc3C(F)(F)F)ccc12
- IC50 [1]: 2430 nM

Compound: CNc1nc(N)nc2nc(-c3ccccc3OC)ccc12
- IC50 [1]: 2790 nM

Compound: CNc1nc(N)nc2nc(-c3ccccc3[N+](=O)[O-])ccc12
- IC50 [1]: 1370 nM

Compound: CNc1nc(N)nc2nc(-c3c(N4CCOCC4)cccc3C(F)(F)F)ccc12
- IC50 [1]: 1150 nM

Compound: CNc1nc(N)nc2nc(-c3ccccc3C(=O)O)ccc12
- IC50 [1]: 2390 nM

The next molecules have a lower IC50 [1] than those just listed; values first:

- IC50 [1]: 350 nM
Compound: CNc1nc(N)nc2nc(-c3c(SC)cccc3C(F)(F)F)ccc12

- IC50 [1]: 610 nM
Compound: CNc1nc(N)nc2nc(-c3ccc(Cl)cc3Cl)ccc12

- IC50 [1]: 620 nM
Compound: CNc1nc(N)nc2nc(-c3c(F)cccc3N3CCCC3)ccc12

- IC50 [1]: 560 nM
Compound: CNc1nc(N)nc2nc(-c3c(OC)cccc3C(F)(F)F)ccc12

- IC50 [1]: 820 nM
Compound: CNc1nc(N)nc2nc(-c3c(Cl)cccc3N3CCCC3)ccc12

- IC50 [1]: 270 nM
Compound: CCCc1cc2c(NC)nc(N)nc2nc1-c1ccccc1C(F)(F)F

- IC50 [1]: 430 nM
Compound: CNc1nc(N)nc2nc(-c3c(N4CCCC4)cccc3C(F)(F)F)ccc12

- Ratio IC50 [2]: 2
- Ratio IC50 [3]: > 100
- Ratio IC50 [4]: > 100
- Vd [5]: 1.8 L/kg
- Ratio IC50 [6]: > 100
- Ratio IC50 [7]: > 100
- Ratio IC50 [8]: > 100
- AUC [9]: 8990 ng·h/mL
- Ratio IC50 [10]: > 100
- IC50 [1]: 480 nM
- Ratio IC50 [11]: > 100
- Cmax [12]: 3530 ng/mL
- Ratio IC50 [13]: > 100
- inhibition [14]: Active
- AUC [15]: 1370 ng·h/mL
- half-life [16]: 432 min
- Ratio IC50 [17]: > 100
- clearance [18]: 61 mL/min/kg
- bioavailability [19]: 66%
Compound: CNc1nc(N)nc2nc(-c3ccccc3C(F)(F)F)ccc12

- IC50 [1]: 260 nM
Compound: CNc1nc(N)nc2nc(-c3c(F)cccc3C(F)(F)F)ccc12

- IC50 [1]: 500 nM
Compound: CNc1nc(N)nc2nc(-c3ccccc3C(F)(F)F)c(C)cc12

- Ratio IC50 [2]: 2
- Ratio IC50 [3]: > 100
- Ratio IC50 [4]: > 100
- Ratio IC50 [6]: > 100
- Ratio IC50 [7]: > 100
- Ratio IC50 [8]: > 100
- clearance [20]: 24 mL/min/kg
- AUC [9]: 11000 ng·h/mL
- Ratio IC50 [10]: > 100
- IC50 [1]: 200 nM
- AUC [21]: 6970 ng·h/mL
- Ratio IC50 [11]: > 100
- Vd [22]: 0.9 L/kg
- Cmax [12]: 2200 ng/mL
- Ratio IC50 [13]: > 100
- half-life [16]: 78 min
- Ratio IC50 [17]: > 100
- bioavailability [19]: 32%
Compound: CNc1nc(N)nc2nc(-c3c(Oc4ccccc4)cccc3C(F)(F)F)ccc12

- IC50 [1]: 530 nM
Compound: CNc1nc(N)nc2nc(-c3ccccc3Br)ccc12

- IC50 [1]: 960 nM
Compound: CNc1nc(N)nc2nc(-c3cc(Cl)ccc3Cl)ccc12
